In PMC11219871, “Epigenetic-based differentiation therapy for Acute Myeloid Leukemia” (Nature Communications, 2024):

Experiments:
Assay in all cases: Epigenetic panel (BPS Bioscience)
Type in all cases: biochemical
[1] = target: T1, DNMT3A/3L (Homo sapiens, UniProt Q9Y6K1)
T1 construct: purchased BPS Bioscience (contracted assay service)
Excerpt: (§1) The selectivity of CM-444 and CM-1758 against other epigenetic targets, including histone demethylase (JMJD2A, JMJD2B, JMJD2C, JMJD2D, JMJD2E, JMJD3, JMJD1A, LSD1, Jarid1A, Jarid1B, Jarid1C, FBXL10, FBXL11, JHDM1D, JMJD1B, PHF8, LSD2 and UTX); histone acetyltransferases (GCN5, P300); histone methyltransferases (G9a, GLP, MLL1, SET7/9, SUV39H1, SUV39H2, PRMT1, PRMT3, PRMT4, PRMT5, PRMT6, PRMT8, PRMT9, NSD1, NSD2, EZH1, EZH2, SETDB1, SETD2, SET8, SUV4-20H1, SMYD2, SMYD3, DOT1L, EZH2 (A677G), EZH2 (A677G), EZH2 (A738T), EZH2 (Y641S), EZH2 (P132S), EZH2 (Y641C), EZH2 (Y641F), EZH2 (Y641H), EZH2 (Y641N)); bromodomains (ATAD2B, ATAD2A, BRD1, BRD9, BPTF/FALZ, CeCR2, BRPF3, BRD3 (BD1 + BD2), BAZ2B, WDR9, TAF1 (BD2), TAF1L (BD2), TAF1L (BD1 + BD2), BRD2 (BD1), BRD2 (BD2), BRD2 (BD1 + BD2), BRD3 (BD1), BRD3 (BD2), BRD4 (BD1), BRD4 (BD2), BRD4 (BD1 + BD2), BRDT (BD1), BRDT (BD1 + BD2), CREBBP, SMARCA2A, SMARCA4/BRG1); DNA methyltranferases (DNMT1, DNMT3A/3L and DNMT3B/3L), and sirtuin histone deacetylases (SIRT1, SIRT2, SIRT3, SIRT5 and SIRT6), were determined by BPS Bioscience (http://www.bpsbioscience.com/index.ph). Binding experiments were performed in duplicate at a concentration of 10 μM.

[2] = target: T2, EZH2 (Homo sapiens, UniProt Q15910)
T2 construct: purchased BPS Bioscience; Eurofins (HDAC4, 5, 7-11)
Excerpt: as §1

[3] = target: T3, EZH2 (Y641F) (Homo sapiens, UniProt Q15910, Y641F)
T3 construct: purchased BPS Bioscience; Eurofins (HDAC4, 5, 7-11)
Excerpt: as §1

[4] = target: T4, EZH2 (Y641S) (Homo sapiens, UniProt Q15910, Y641S)
T4 construct: purchased BPS Bioscience; Eurofins (HDAC4, 5, 7-11)
Excerpt: as §1

[5] = target: T5, FBXL11 (Homo sapiens, UniProt Q9Y2K7)
T5 construct: purchased BPS Bioscience; Eurofins (HDAC4, 5, 7-11)
Excerpt: as §1

[6] = target: T6, GCN5 (Homo sapiens, UniProt Q92830); details: read-out: % of inhibition
T6 construct: purchased BPS Bioscience; Eurofins (HDAC4, 5, 7-11)
Excerpt: as §1

[7] = target: T7, JMJD2A (Homo sapiens, UniProt O75164)
T7 construct: purchased BPS Bioscience; Eurofins (HDAC4, 5, 7-11)
Excerpt: as §1

[8] = target: T8, JMJD2C (Homo sapiens, UniProt Q9H3R0)
T8 construct: purchased BPS Bioscience; Eurofins (HDAC4, 5, 7-11)
Excerpt: as §1

[9] = target: T9, JMJD2D (Homo sapiens, UniProt Q6B0I6)
T9 construct: purchased BPS Bioscience; Eurofins (HDAC4, 5, 7-11)
Excerpt: as §1

[10] = target: T10, JMJD2E (Homo sapiens, UniProt B2RXH2)
T10 construct: purchased BPS Bioscience; Eurofins (HDAC4, 5, 7-11)
Excerpt: as §1

[11] = target: T11, JMJD3 (Homo sapiens, UniProt O15054)
T11 construct: purchased BPS Bioscience; Eurofins (HDAC4, 5, 7-11)
Excerpt: as §1

[12] = target: T12, Jarid1A (Homo sapiens, UniProt P29375)
T12 construct: purchased BPS Bioscience; Eurofins (HDAC4, 5, 7-11)
Excerpt: as §1

[13] = target: T13, Jarid1B (Homo sapiens, UniProt Q9UGL1)
T13 construct: purchased BPS Bioscience; Eurofins (HDAC4, 5, 7-11)
Excerpt: as §1

[14] = target: T14, Jarid1C (Homo sapiens, UniProt P41229)
T14 construct: purchased BPS Bioscience; Eurofins (HDAC4, 5, 7-11)
Excerpt: as §1

[15] = target: T15, LSD1 (Homo sapiens, UniProt O60341)
T15 construct: purchased BPS Bioscience; Eurofins (HDAC4, 5, 7-11)
Excerpt: as §1

[16] = target: T16, LSD2 (Homo sapiens, UniProt Q8NB78)
T16 construct: purchased BPS Bioscience; Eurofins (HDAC4, 5, 7-11)
Excerpt: as §1

[17] = target: T17, MLL1 (Homo sapiens, UniProt Q03164)
T17 construct: purchased BPS Bioscience; Eurofins (HDAC4, 5, 7-11)
Excerpt: as §1

[18] = target: T18, NSD2 (Homo sapiens, UniProt O96028)
T18 construct: purchased BPS Bioscience; Eurofins (HDAC4, 5, 7-11)
Excerpt: as §1

[19] = target: T19, PHF8 (Homo sapiens, UniProt Q9UPP1)
T19 construct: purchased BPS Bioscience; Eurofins (HDAC4, 5, 7-11)
T19 sequence (Q9UPP1 whole entry): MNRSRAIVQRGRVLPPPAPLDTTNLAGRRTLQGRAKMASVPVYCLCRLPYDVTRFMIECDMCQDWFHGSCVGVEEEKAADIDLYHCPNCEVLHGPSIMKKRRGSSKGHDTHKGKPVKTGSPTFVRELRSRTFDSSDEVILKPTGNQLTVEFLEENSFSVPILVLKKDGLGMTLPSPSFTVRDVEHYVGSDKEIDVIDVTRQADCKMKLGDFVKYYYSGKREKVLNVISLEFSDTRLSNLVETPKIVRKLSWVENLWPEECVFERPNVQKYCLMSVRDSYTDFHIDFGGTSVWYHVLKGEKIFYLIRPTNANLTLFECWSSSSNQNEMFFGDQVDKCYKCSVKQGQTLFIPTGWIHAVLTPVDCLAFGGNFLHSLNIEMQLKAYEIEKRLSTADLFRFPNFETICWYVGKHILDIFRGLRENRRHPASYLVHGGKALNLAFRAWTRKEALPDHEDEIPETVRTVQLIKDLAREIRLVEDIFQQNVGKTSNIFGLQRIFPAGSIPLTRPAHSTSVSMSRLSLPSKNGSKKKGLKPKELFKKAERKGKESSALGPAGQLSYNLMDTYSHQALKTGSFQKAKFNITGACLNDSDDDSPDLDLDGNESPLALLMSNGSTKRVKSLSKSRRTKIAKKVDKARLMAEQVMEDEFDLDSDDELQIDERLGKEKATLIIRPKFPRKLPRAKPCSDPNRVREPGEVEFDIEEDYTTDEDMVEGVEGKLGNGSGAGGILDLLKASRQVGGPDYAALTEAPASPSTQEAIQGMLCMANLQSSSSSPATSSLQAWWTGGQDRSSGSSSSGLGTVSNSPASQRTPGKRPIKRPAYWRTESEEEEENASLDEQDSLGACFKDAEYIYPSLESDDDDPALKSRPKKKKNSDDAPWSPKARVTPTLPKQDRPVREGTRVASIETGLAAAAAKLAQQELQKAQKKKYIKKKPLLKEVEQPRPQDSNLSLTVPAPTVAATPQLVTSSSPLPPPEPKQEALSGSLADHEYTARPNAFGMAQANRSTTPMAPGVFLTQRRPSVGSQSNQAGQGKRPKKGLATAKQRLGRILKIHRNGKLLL
Excerpt: as §1

[20] = target: T20, PRMT1 (Homo sapiens, UniProt Q99873)
T20 construct: purchased BPS Bioscience; Eurofins (HDAC4, 5, 7-11)
Excerpt: as §1

[21] = target: T21, PRMT3 (Homo sapiens, UniProt O60678)
T21 construct: purchased BPS Bioscience; Eurofins (HDAC4, 5, 7-11)
T21 sequence (O60678 whole entry): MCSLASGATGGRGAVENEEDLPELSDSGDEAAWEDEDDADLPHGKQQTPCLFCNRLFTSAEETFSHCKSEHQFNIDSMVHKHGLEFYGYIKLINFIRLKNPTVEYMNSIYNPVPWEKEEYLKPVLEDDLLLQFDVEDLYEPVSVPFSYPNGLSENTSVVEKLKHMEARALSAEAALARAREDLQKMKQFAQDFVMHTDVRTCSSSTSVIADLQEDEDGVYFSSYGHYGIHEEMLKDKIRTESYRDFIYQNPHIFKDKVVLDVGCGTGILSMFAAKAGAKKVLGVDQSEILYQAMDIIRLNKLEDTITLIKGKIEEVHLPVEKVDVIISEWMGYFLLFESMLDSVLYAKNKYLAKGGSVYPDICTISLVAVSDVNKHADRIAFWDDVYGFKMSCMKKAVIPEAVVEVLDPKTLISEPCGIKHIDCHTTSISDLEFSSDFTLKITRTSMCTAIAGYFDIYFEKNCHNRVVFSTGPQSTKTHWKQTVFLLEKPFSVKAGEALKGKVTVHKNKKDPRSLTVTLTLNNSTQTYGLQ
Excerpt: as §1

[22] = target: T22, PRMT5 (Homo sapiens, UniProt O14744)
T22 construct: purchased BPS Bioscience; Eurofins (HDAC4, 5, 7-11)
Excerpt: as §1

[23] = target: T23, PRMT8 (Homo sapiens, UniProt Q9NR22)
T23 construct: purchased BPS Bioscience; Eurofins (HDAC4, 5, 7-11)
T23 sequence (Q9NR22 whole entry): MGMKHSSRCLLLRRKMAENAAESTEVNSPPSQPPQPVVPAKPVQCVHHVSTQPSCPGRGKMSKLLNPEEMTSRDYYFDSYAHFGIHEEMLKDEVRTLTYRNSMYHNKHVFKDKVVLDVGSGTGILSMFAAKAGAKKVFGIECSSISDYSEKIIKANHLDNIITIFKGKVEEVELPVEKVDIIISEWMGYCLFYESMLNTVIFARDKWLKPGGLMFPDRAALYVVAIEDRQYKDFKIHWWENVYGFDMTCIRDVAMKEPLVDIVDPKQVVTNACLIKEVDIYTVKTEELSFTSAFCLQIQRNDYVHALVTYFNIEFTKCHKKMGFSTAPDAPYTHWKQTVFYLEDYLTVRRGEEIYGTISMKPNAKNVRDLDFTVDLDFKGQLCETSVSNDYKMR
Excerpt: as §1

[24] = target: T24, SET7/9 (Homo sapiens, UniProt Q8WTS6)
T24 construct: purchased BPS Bioscience; Eurofins (HDAC4, 5, 7-11)
Excerpt: as §1

[25] = target: T25, SET8 (Homo sapiens, UniProt Q9NQR1)
T25 construct: purchased BPS Bioscience; Eurofins (HDAC4, 5, 7-11)
Excerpt: as §1

[26] = target: T26, SIRT6 (Homo sapiens, UniProt Q8N6T7)
T26 construct: purchased BPS Bioscience; Eurofins (HDAC4, 5, 7-11)
T26 sequence (Q8N6T7 whole entry): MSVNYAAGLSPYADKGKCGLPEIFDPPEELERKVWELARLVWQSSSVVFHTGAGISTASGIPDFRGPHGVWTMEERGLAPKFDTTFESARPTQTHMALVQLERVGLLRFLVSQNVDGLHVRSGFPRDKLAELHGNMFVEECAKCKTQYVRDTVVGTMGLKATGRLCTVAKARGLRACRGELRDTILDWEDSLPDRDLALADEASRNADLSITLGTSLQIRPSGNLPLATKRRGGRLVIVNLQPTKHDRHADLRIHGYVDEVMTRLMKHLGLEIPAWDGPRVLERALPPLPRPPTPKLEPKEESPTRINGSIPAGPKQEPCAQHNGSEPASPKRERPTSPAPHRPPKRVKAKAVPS
Excerpt: as §1

[27] = target: T27, SMYD3 (Homo sapiens, UniProt Q9H7B4)
T27 construct: purchased BPS Bioscience; Eurofins (HDAC4, 5, 7-11)
Excerpt: as §1

[28] = target: T28, SUV39H1 (Homo sapiens, UniProt O43463)
T28 construct: purchased BPS Bioscience; Eurofins (HDAC4, 5, 7-11)
Excerpt: as §1

[29] = target: T29, SUV39H2 (Homo sapiens, UniProt Q9H5I1)
T29 construct: purchased BPS Bioscience; Eurofins (HDAC4, 5, 7-11)
Excerpt: as §1

[30] = target: T30, SUV4-20H1 (Homo sapiens, UniProt Q4FZB7)
T30 construct: purchased BPS Bioscience; Eurofins (HDAC4, 5, 7-11)
Excerpt: as §1

[31] = target: T31, UTX (Homo sapiens, UniProt O15550)
T31 construct: purchased BPS Bioscience (contracted assay service)
T31 sequence (O15550 whole entry): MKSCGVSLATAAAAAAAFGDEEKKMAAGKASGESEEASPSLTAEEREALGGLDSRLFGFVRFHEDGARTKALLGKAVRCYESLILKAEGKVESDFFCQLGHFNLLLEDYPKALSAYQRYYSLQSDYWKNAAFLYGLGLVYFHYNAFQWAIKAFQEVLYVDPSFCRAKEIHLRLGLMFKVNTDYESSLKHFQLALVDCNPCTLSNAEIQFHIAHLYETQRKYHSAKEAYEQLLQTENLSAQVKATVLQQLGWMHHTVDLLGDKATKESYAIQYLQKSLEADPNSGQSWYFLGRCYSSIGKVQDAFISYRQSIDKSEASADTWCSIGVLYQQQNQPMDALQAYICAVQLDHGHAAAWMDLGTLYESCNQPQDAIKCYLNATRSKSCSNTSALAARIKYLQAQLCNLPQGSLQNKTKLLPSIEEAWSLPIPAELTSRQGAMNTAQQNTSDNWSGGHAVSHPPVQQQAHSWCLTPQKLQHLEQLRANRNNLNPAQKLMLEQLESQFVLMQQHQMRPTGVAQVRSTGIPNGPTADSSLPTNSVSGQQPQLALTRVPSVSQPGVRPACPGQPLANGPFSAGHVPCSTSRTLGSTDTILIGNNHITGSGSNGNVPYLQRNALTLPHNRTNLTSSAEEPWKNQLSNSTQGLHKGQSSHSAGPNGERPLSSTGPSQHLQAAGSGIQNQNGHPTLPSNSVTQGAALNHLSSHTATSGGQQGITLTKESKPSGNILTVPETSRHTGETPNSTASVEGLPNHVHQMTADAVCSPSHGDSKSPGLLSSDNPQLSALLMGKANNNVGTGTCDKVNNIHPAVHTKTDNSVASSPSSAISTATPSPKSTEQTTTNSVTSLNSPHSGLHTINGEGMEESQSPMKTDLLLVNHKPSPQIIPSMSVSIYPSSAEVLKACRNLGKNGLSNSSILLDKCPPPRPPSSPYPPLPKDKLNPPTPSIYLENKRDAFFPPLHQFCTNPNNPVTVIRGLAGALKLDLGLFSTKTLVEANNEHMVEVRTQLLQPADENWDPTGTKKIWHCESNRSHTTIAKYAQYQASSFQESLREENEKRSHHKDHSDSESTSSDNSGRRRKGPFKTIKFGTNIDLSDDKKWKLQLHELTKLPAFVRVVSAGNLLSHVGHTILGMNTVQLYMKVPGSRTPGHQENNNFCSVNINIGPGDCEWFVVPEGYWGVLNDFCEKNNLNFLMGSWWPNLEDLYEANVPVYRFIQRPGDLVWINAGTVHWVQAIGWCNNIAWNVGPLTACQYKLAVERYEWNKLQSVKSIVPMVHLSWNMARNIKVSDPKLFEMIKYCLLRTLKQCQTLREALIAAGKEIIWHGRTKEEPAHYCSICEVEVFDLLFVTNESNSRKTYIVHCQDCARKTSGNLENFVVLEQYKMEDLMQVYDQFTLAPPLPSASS
Excerpt: as §1

T1 sequence (Q9Y6K1 whole entry, looked up): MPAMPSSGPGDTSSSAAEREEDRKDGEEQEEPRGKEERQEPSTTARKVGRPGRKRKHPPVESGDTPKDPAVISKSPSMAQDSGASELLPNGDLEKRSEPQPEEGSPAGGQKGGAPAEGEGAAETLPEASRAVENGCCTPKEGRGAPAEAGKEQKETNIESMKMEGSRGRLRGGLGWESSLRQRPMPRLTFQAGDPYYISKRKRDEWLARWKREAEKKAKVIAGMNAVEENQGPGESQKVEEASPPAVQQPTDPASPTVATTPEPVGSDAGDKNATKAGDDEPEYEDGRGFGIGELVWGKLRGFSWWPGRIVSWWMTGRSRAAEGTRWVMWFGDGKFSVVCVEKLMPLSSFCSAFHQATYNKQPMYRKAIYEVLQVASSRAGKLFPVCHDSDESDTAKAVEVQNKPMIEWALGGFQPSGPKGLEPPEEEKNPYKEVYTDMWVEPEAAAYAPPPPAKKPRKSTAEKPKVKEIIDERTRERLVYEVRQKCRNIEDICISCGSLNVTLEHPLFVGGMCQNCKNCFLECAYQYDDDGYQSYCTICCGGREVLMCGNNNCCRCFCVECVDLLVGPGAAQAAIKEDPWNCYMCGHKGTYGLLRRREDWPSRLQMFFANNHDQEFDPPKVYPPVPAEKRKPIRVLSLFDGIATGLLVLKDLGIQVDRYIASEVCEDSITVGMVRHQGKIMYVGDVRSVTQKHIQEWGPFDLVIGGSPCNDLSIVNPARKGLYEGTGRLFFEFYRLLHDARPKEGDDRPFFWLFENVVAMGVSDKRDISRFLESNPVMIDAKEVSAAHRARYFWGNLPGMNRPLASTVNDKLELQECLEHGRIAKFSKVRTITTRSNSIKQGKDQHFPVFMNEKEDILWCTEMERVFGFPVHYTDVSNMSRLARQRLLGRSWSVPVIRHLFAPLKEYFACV
T1 sequence (Q9UJW3 whole entry partner): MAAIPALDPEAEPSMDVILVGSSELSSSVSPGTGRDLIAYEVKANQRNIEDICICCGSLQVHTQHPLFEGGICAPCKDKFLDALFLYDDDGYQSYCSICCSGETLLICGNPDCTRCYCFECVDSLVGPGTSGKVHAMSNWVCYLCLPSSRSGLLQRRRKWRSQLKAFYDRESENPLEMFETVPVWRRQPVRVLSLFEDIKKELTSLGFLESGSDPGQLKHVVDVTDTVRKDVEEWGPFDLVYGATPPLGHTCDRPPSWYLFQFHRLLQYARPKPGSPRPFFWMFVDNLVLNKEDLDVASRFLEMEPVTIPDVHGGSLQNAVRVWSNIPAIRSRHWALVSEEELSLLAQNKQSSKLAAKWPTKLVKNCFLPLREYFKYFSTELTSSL

SMILES | inhibition at 10 µM [1] [%] | inhibition at 10 µM [2] [%] | inhibition at 10 µM [3] [%] | inhibition at 10 µM [4] [%] | inhibition at 10 µM [5] [%] | inhibition at 10 µM [6] [%] | inhibition at 10 µM [7] [%] | inhibition at 10 µM [8] [%] | inhibition at 10 µM [9] [%] | inhibition at 10 µM [10] [%] | inhibition at 10 µM [11] [%] | inhibition at 10 µM [12] [%] | inhibition at 10 µM [13] [%] | inhibition at 10 µM [14] [%] | inhibition at 10 µM [15] [%] | inhibition at 10 µM [16] [%] | inhibition at 10 µM [17] [%] | inhibition at 10 µM [18] [%] | inhibition at 10 µM [19] [%] | inhibition at 10 µM [20] [%] | further results
COc1cc2nc(-c3ccc(C)o3)cc(NCC3CCN(c4ncc(C(=O)NO)cn4)CC3)c2cc1OC [CM-444, 2-[4-[[[6,7-dimethoxy-2-(5-methyl-2-furyl)-4-quinolyl]amino]methyl]-1-piperidyl]pyrimidine-5-carbohydroxamic acid] | 92 | 0 | 0 | 4 | 33 | 31 | 21 | 4 | 5 | 5 | 21 | 16 | 5 | 2 | 16 | 21 | 0 | 35 | 6 | 0 | IC50 [1]: 1800 nM; inhibition at 10 µM [21]: 0%; inhibition at 10 µM [22]: 0%; inhibition at 10 µM [23]: 0%; inhibition at 10 µM [24]: 0%; inhibition at 10 µM [25]: 4%; inhibition at 10 µM [26]: 15%; inhibition at 10 µM [27]: 35%; inhibition at 10 µM [28]: 1%; inhibition at 10 µM [29]: 0%; inhibition at 10 µM [30]: 2%; IC50 [31]: 1500 nM; inhibition at 10 µM [31]: 95%
COc1cc2nc(-c3cc(C)oc3C)cc(NCC3CCN(c4ncc(C(=O)NO)cn4)CC3)c2cc1OC [CM-1758, 2-[4-[[[2-(2,5-dimethyl-3-furyl)-6,7-dimethoxy-4-quinolyl]amino]methyl] -1-piperidyl]pyrimidine-5-carbohydroxamic acid] | 44 | 0 | 1 | 24 | 2 | 12 | 20 | 9 | 0 | 1 | 20 | 47 | 29 | 26 | 20 | 22 | 1 | 16 | 12 | 0 | inhibition at 10 µM [21]: 0%; inhibition at 10 µM [22]: 7%; inhibition at 10 µM [23]: 0%; inhibition at 10 µM [24]: 19%; inhibition at 10 µM [25]: 9%; inhibition at 10 µM [26]: 4%; inhibition at 10 µM [27]: 21%; inhibition at 10 µM [28]: 1%; inhibition at 10 µM [29]: 1%; inhibition at 10 µM [30]: 1%; IC50 [31]: 2200 nM; inhibition at 10 µM [31]: 91%
